The source of these data is patent US20070053918A1, “Injectable depots consisting of liposomal aggregates for the delivery of active substances” (NOVOSOM AG, priority 2003, published 2007).

Data set [1] can be described thus: Inclusion of leuprolide acetate in liposomes (ultracentrifugation, RP-HPLC). The data set is classed as physicochemical. To be noted: formulation L1 DPPC/DPPG/Chol liposomes, 100 mM lipid, extrusion 400 nm. As for the experimental part: is dissolved in chloroform at 50° C. and subsequently dried completely in vacuum in a rotary evaporator. The lipid film is added with leuprolide acetate solution (2.5 mg/ml in 10 mM HEPES, 150 mM NaCl, pH 6) in an amount so as to form a 100 mM suspension. Subsequently, this suspension is hydrated in a water bath at 50° C for 45 minutes with agitating. Thereafter, the suspension is frozen. This is followed by 3 additional cycles of freezing and thawing.
Following final thawing, the liposomes are subjected to multiple extrusions through a membrane having a pore width of 400 nm (Avestin LiposoFast, polycarbonate membrane with a pore width of 400 nm).
Following removal of free leuprolide acetate, the percentage of entrapped leuprolide acetate is determined by means of triple sedimentation in an ultracentrifuge at 60,000×g for 45 minutes. The leuprolide acetate is determined following extraction with CHCl3 and CH3OH, using RP-HPLC. Inclusion rates of about 15% leuprolide acetate are found.

Data set [2] is described as follows: Inclusion of insulin in liposomes (ELISA after liberation from liposomes). The format is physicochemical. The note with it: DPPC/DPPG/Chol 50:10:40 liposomes, 50 mM lipid, extrusion 200 or 400 nm. As for the experimental part:
A mixture of 50 mole-% DPPC, 10 mole-% DPPG and 40 mole-% Chol is dissolved in chloroform at 50° C. and subsequently dried completely in vacuum in a rotary evaporator. The lipid film is added with human insulin solution (recombinant insulin; 7.5 mg/ml insulin in 10 mM glycine-HCl, 300 mM sucrose, pH 3) in an amount so as to form a 50 mM suspension. Subsequently, this suspension is hydrated in a water bath at 50° C. for 45 minutes by agitating and treated in an ultrasonic bath for another 5 minutes. Thereafter, the suspension is frozen. This is followed by 3 cycles of freezing and thawing, each thawing being followed by a 5 minute treatment in the ultrasonic bath.
Following final thawing, the liposomes are subjected to multiple extrusions through a membrane having a pore width of 200 nm or 400 nm (Avestin LiposoFast, polycarbonate membrane with a pore width of 200 or 400 nm). Following extrusion, the resulting suspension is rebuffered by adding a solutions of HEPES, pH 7.5, and NaCl. After filtration of the liposomes through […], non-entrapped insulin is removed by gel filtration (S-200 column, Pharmacia) . Following liberation from the liposomes, the amount of entrapped insulin is determined by means of an ELISA (DRG-ELISA Kit). Inclusion rates of 50-70% insulin are found.
(In an ELISA, binding on a coated surface is turned into a signal by an enzyme label.)

Regarding `CCNC(=O)[C@@H]1CCCN1C(=O)[C@H](CCCNC(=N)N)NC(=O)[C@H](CC(C)C)NC(=O)[C@@H](CC(C)C)NC(=O)[C@H](Cc1ccc(O)cc1)NC(=O)[C@H](CO)NC(=O)[C@H](Cc1c[nH]c2ccccc12)NC(=O)[C@H](Cc1c[nH]cn1)NC(=O)[C@@H]1CCC(=O)N1` [leuprolide acetate], the “Inclusion rate of leuprolide acetate” value in data set [1] is “about 15%”.

“insulin: recombinant human insulin entrapped in DPPC/DPPG/Chol 50:10:40 liposomes”: the “Inclusion rate of insulin” value in data set [2] is 50-70%.
